Read-outs that look alike come from different tables or passages of the source. Numbered stars: 1 amine (or outer) side, 2 acyl side, 3 side chain; on linkers, the order of the positions; unused ones are H or OH. Square brackets hold non-standard residues; d marks the D form. Peptide text beside a SMILES is read from it. N(1S-Me-propyl)Gly = CC[C@H](C)NCC(=O)O; X1 = CC(C)[C@H](C)N(CC(=O)[*:2])[*:1]; Nrpe = C[C@@H](NCC(=O)O)c1ccccc1; Nspe = C[C@H](NCC(=O)O)c1ccccc1; Nlys = NCCCCNCC(=O)O

The nature of one data set: MTS assay, NIH 3T3 cells. It is filed as cell-based, mouse. As to conditions: NIH 3T3 fibroblast cells. On the procedure: The potencies of all compounds were determined against representative Gram-negative (E. coli ATCC 35218) and Gram-positive (B. subtilis ATCC 6633) biosafety level 1 (BSL1) organisms. In addition to hemolytic activity, the conventional measure of toxicity to mammalian cells, the effect of each ampetoid on NIH 3T3 mouse fibroblast cells was determined using the MTS tetrazolium salt-based colorimetric assay. While hemolysis measures the degree to which erythrocytes are lysed, the MTS assay indirectly quantifies the extent to which cellular metabolic activity is inhibited.
MTS assays. NIH/3T3 cells (ATCC Corporation) cultured at 37° C. and 5% CO2 in complete Dulbecco's modified eagle's media (CDMEM) supplemented with 1% sodium pyruvate, 1% penicillin-streptomycin, 1.5 g/L NaHCO3, and 10% fetal bovine serum. Cells were seeded at a density of 5,000 cells per well for NIH/3T3 cells in 96-well plates (100 μl total volume). A peptoid solution plate (100 μL total volume per well) was prepared by serial dilution of aqueous peptoid stock solution in Hank's balanced salt solution (HBSS) media. The day-old cell monolayers were washed with HBSS and media was replaced with 100 μL HBSS. The contents of the peptoid solution plate were transferred onto corresponding wells of the cell monolayer plate, and 40 μL MTS reagent (Promega, Inc.) was added to each well. After incubating for 3 hours at 37° C., absorbance at 490 nm was determined. […] The average of six replicates is reported.

The test system of another data set is E. coli ATCC 35218. It is filed as cell-based. The settings on record: ATCC 35218. As for the experimental part: Whereas the preceding generation of molecules was designed to elucidate structure function relationships of specific molecular parameters (chirality, length, hydrophobicity, etc.), another generation compounds were designed explicitly to explore effects on selectivity. Antimicrobial activity of these compounds was tested against bacterial strains E. coli (ATTC 35218) and B. subtilis (ATTC 6633) in cation-adjusted MHB using the microdilution protocols previously described. The sequences, antimicrobial activities, hemolytic activities, and metabolic inhibitory concentrations against NIH 3T3 mouse fibroblast cells are summarized in Table 3 and the rationale of their design is described below.
Screening antibacterial assays. MICs were determined in 96-well microtiter plates in accordance with CLSI M7-A6 protocols. Peptoid solutions with 50 μL total volume were prepared using 2:1 serial dilutions. 50 i—tL of bacteria inoculum (1×10^6 CFU/mL) prepared in cation-adjusted Mueller-Hinton broth (CAMHB) was added to test wells. Control wells contained 100 μL MHB (no growth) or 50 μL inoculums with 50 μL MHB with no peptoid. […] Reported values were reproducible over three experiments, each containing two parallel trials.
Antibacterial Assays for Compositions. MICs were determined according to CLSI M7-A6 protocols in a 96-well microtiter plate. In test wells, 50 μL bacterial inoculum (1×10^6 CFU/ml) in cation-adjusted Mueller-Hinton broth (CAMHB) was added to 50 μL peptoid solution in CAMHB (prepared by 1:2 serial dilutions). Positive controls contained 50 μL inoculum and 50 μL CAMHB without peptoid. […] MIC values reported were reproducible between three independent experimental replicates, each consisting of two parallel trials.

The test system of the next data set is human erythrocytes. In words: Hemolysis assay. Type of data set: cell-based. On the procedure: (§1) Hemolysis assays. Erythrocytes were isolated from freshly drawn, heparanized human blood and resuspended to 20 vol % in PBS (pH 7.4). In a 96-well microtiter plate, 100 μL erythrocyte suspension was added to 100 uL peptoid solution in PBS (prepared by 1:2 serial dilutions), or 100 μL PBS in the case of negative controls. 100% hemolysis wells contained 100 μL, blood cell suspension with 100 μL 0.2 vol % Triton X-100. The plate was incubated for 1 h at 37° C., then each well was diluted with 1504 PBS. The plate was then centrifuged at 1200 g for 15 min, 100 μL of the supernatant from each well transferred to a fresh microtiter plate, and A350 measured.
Hemolysis assays. Erythrocytes were isolated from freshly drawn, heparanized human blood and resuspended in PBS (pH 7.4) to make a 20% volume suspension. Peptoid solutions were prepared by serial dilution (2:1) in a 96-well microtiter plate. For test wells, 100 μLL of erythrocyte suspension was added to 100 μL of peptoid solution in PBS; PBS without peptoid was used as the negative control and 0.2 vol % Triton X-100 as the positive control that indicates 100% hemolysis. After 1 hour incubation at 37° C., each well was diluted with 150 μL PBS. Plates were then centrifuged at 1,200×g for 15 minutes to pellet the cells. 30 μL of the supernatant from each well were transferred to the corresponding well of a second 96-well plate that contains 70 μL PBS.
as §1, with “assays for Compositions.” for “assays.”, “100” for “100 uL”, “μL” for “μL,”, “150 μL” for “1504”, “1200g” for “1200 g”

[1] abbreviates: Table 6, 50% inhibitory dose against NIH 3T3 mouse fibroblast cells, read-out: ID50.

Take `C[C@H](NCC(=O)N(CCCCN)CC(=O)N(CC(=O)N(CCCCN)CC(=O)N(CCCCN)CC(=O)N(CCCCN)CC(=O)N(CC(=O)N(CCCCN)CC(=O)N(CC(=O)N(CCCCN)CC(=O)N(CCCCN)CC(=O)N(CC(N)=O)[C@@H](C)c1ccccc1)[C@@H](C)c1ccccc1)[C@@H](C)c1ccccc1)[C@@H](C)c1ccccc1)c1ccccc1` [1B12 mer-Nlys4,6,10, H-Nspe-Nlys-Nspe-Nlys-Nlys-Nlys-Nspe-Nlys-Nspe-Nlys-Nlys-Nspe-NH2] (H-[Nspe][Nlys][Nspe][Nlys][Nlys][Nlys][Nspe][Nlys][Nspe][Nlys][Nlys][Nspe]-NH2): the CC50 at 3 h in “MTS assay, NIH 3T3 cells” (mouse) was more than 100 µM.

On to `C[C@H](NCC(=O)N(CCCCN)CC(=O)N(CC(=O)N(CCCCN)CC(=O)N(CCCCN)CC(=O)N(CC(=O)N(CC(=O)N(CCCCN)CC(=O)N(CC(=O)N(CCCCN)CC(=O)N(CCCCN)CC(=O)N(CC(N)=O)[C@@H](C)c1ccccc1)[C@@H](C)c1ccccc1)[C@@H](C)c1ccccc1)[C@@H](C)c1ccccc1)[C@@H](C)c1ccccc1)c1ccccc1` [1B12 mer-Nlys4,10, H-(Nspe-Nlys-Nspe-Nlys-Nlys-Nspe)2-NH2] (H-[Nspe][Nlys][Nspe][Nlys][Nlys][Nspe][Nspe][Nlys][Nspe][Nlys][Nlys][Nspe]-NH2), for which the “E. coli MIC” value in the data set on E. coli ATCC 35218 came out at 50 µM. Moreover, the CC50 at 3 h in “MTS assay, NIH 3T3 cells” (mouse) stood at 83 µM.

Take `C[C@H](NCC(=O)N(CCCCN)CC(=O)N(CC(=O)N(CCCCN)CC(=O)N(CCCCN)CC(=O)N(CCCCN)CC(=O)N(CC(=O)N(CCCCN)CC(=O)N(CC(=O)N(CCCCN)CC(=O)N(CCCCN)CC(=O)N(CC(=O)N(CC(=O)N(CCCCN)CC(=O)N(CC(N)=O)[C@@H](C)c1ccccc1)[C@@H](C)c1ccccc1)[C@@H](C)c1ccccc1)[C@@H](C)c1ccccc1)[C@@H](C)c1ccccc1)[C@@H](C)c1ccccc1)c1ccccc1` [1B15 mer-Nlys4,6,10, H-Nspe-Nlys-Nspe-Nlys-Nlys-Nlys-Nspe-Nlys-Nspe-Nlys-Nlys-Nspe-Nspe-Nlys-Nspe-NH2] (H-[Nspe][Nlys][Nspe][Nlys][Nlys][Nlys][Nspe][Nlys][Nspe][Nlys][Nlys][Nspe][Nspe][Nlys][Nspe]-NH2): in the data set on E. coli ATCC 35218, the “E. coli MIC” value is more than 100 µM. Besides, the CC50 at 3 h in the data set “MTS assay, NIH 3T3 cells” (mouse) was determined as 40 µM.

For `C[C@H](c1ccccc1)N(CC(=O)N(CC(N)=O)[C@@H](C)c1ccccc1)C(=O)CN(CCCCN)C(=O)CN(C(=O)CN(C(=O)CN(CCCCN)C(=O)CN(C(=O)CN(C(=O)CN(CCCCN)C(=O)CN(C(=O)CN(C(=O)CNCCCCN)[C@H](C)c1ccccc1)[C@@H](C)c1ccccc1)[C@H](C)c1ccccc1)[C@@H](C)c1ccccc1)[C@H](C)c1ccccc1)[C@@H](C)c1ccccc1` [1-Nrpe2,5,8,11, H-(Nlys-Nrpe-Nspe)4-NH2] (H-[Nlys][Nrpe][Nspe][Nlys][Nrpe][Nspe][Nlys][Nrpe][Nspe][Nlys][Nrpe][Nspe]-NH2), in the data set “MTS assay, NIH 3T3 cells” (setting [1]), the CC50 at 3 h was found to be 5.2 µM.

`CC(C)[C@H](C)N(CC(=O)N(CCCCN)CC(=O)N(CC(=O)N(CC(=O)N(CCCCN)CC(=O)N(CC(=O)N(CC(=O)N(CCCCN)CC(=O)N(CC(=O)N(CC(N)=O)[C@@H](C)c1ccccc1)[C@@H](C)c1ccccc1)[C@@H](C)C(C)C)[C@@H](C)C(C)C)[C@@H](C)c1ccccc1)[C@@H](C)c1ccccc1)C(=O)CN(C(=O)CNCCCCN)[C@@H](C)C(C)C` [1-Nsdp2,3,8,9, H-(Nlys-Nsdp-Nsdp-Nlys-Nspe-Nspe)2-NH2] (H-[Nlys][X1][X1][Nlys][Nspe][Nspe][Nlys][X1][X1][Nlys][Nspe][Nspe]-NH2): the “E. coli MIC” value in the data set on E. coli ATCC 35218 stood at 12.5 µM. The molecule also came in with a CC50 at 3 h in the data set “MTS assay, NIH 3T3 cells” (mouse) of 19 µM.

`C[C@H](c1ccccc1)N(CC(=O)N(CCCCN)CC(=O)N(CC(=O)N(CC(=O)N(CCCCN)CC(=O)N(CC(=O)N(CC(=O)N(CCCCN)CC(=O)N(CC(=O)N(CC(N)=O)[C@@H](C)c1ccccc1)[C@@H](C)c1ccccc1)[C@@H](C)c1ccccc1)[C@@H](C)c1ccccc1)[C@H](C)c1ccccc1)[C@H](C)c1ccccc1)C(=O)CN(C(=O)CNCCCCN)[C@H](C)c1ccccc1` [1-Nrpe2,3,5,6, H-(Nlys-Nrpe-Nrpe)2-(Nlys-Nspe-Nspe)2-NH2] (H-[Nlys][Nrpe][Nrpe][Nlys][Nrpe][Nrpe][Nlys][Nspe][Nspe][Nlys][Nspe][Nspe]-NH2): in “MTS assay, NIH 3T3 cells” (setting [1]), the CC50 at 3 h came out at 4.8 µM.

For `C[C@@H](c1ccccc1)N(CC(N)=O)C(=O)CN(C(=O)CN(CCC(=O)O)C(=O)CN(C(=O)CN(C(=O)CN(CCC(=O)O)C(=O)CN(C(=O)CN(C(=O)CN(CCC(=O)O)C(=O)CN(C(=O)CN(C(=O)CNCCC(=O)O)[C@@H](C)c1ccccc1)[C@@H](C)c1ccccc1)[C@@H](C)c1ccccc1)[C@@H](C)c1ccccc1)[C@@H](C)c1ccccc1)[C@@H](C)c1ccccc1)[C@@H](C)c1ccccc1` [1-Nglu1.4.7.10, H-(Nglu-Nspe-Nspe)4-NH2], the “HD10 (10% hemolytic dose)” value with human erythrocytes (red cells of human, 1 h) is given as >110/>110 μM.

`C[C@H](c1ccccc1)N(CC(N)=O)C(=O)CN(C(=O)CN(CCCCN)C(=O)CN(C(=O)CN(C(=O)CN(CCCCN)C(=O)CN(C(=O)CN(C(=O)CN(CCCCN)C(=O)CN(C(=O)CN(C(=O)CNCCCCN)[C@@H](C)c1ccccc1)[C@H](C)c1ccccc1)[C@@H](C)c1ccccc1)[C@H](C)c1ccccc1)[C@@H](C)c1ccccc1)[C@H](C)c1ccccc1)[C@@H](C)c1ccccc1` [1-Nrpe3,6,9,12, H-(Nlys-Nspe-Nrpe)4-NH2]: the CC50 at 3 h in the data set “MTS assay, NIH 3T3 cells” (setting [1]) was 3.8 µM.

Consider `C[C@@H](c1ccccc1)N(CC(N)=O)C(=O)CN(C(=O)CN(CCCCN)C(=O)CN(C(=O)CN(C(=O)CNCCCCN)[C@@H](C)c1ccccc1)[C@@H](C)c1ccccc1)[C@@H](C)c1ccccc1` [16 mer, H-(Nlys-Nspe-Nspe)2-NH2] (H-[Nlys][Nspe][Nspe][Nlys][Nspe][Nspe]-NH2), for which, in the data set with human erythrocytes, the HD10 is >200/>200 μM and the HD50 is >200/>200 μM.

With `CC[C@H](C)N(CC(=O)N(CC(=O)N(CC(=O)N(CCCCN)CC(N)=O)[C@@H](C)c1ccccc1)[C@@H](C)CC)C(=O)CN(CCCCN)C(=O)CN(C(=O)CN(CCCCN)C(=O)CN(C(=O)CN(C(=O)CN(C(=O)CN(C(=O)CNCCCCN)[C@@H](C)CC)[C@@H](C)c1ccccc1)[C@@H](C)CC)[C@@H](C)c1ccccc1)[C@@H](C)c1ccccc1` [2scrambled, H-Nlys-Nssb-Nspe-Nssb-Nspe-Nlys-Nspe-Nlys-Nssb-Nssb-Nspe-Nlys-NH2] (H-[Nlys][N(1S-Me-propyl)Gly][Nspe][N(1S-Me-propyl)Gly][Nspe][Nlys][Nspe][Nlys][N(1S-Me-propyl)Gly][N(1S-Me-propyl)Gly][Nspe][Nlys]-NH2), the “HD10 (10% hemolytic dose)” value with human erythrocytes was more than 120 µM.

The record behind these values is patent US20120295838A1, “Selective poly-substituted glycine antibiotics and related compositions” (priority 2008, published 2012).
